These results are taken from US9938279B2, “Method for treating disease or condition susceptible to amelioration by AMPK activators and compounds of formula which are useful to activate AMP-activated protein kinase (AMPK)” (ENERGENESIS BIOMEDICAL CO., LTD, priority 2013, dated 2018).

Experiment [1] relates to AMPK. Description: AMPK activation assay (western blot phospho-AMPK Thr172) in Hep G2. The format is cell-based, human. The settings on record: Hep G2 cells, 30 min treatment. The method, boiled down:
(§1)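 Mouse C2C12, mouse 3T3-L1 and human Hep G2 cells in high-glucose DMEM/10% FBS were treated with compounds for 30 min, 24 h after plating. Lysates were western-blotted for phospho-AMPK (Thr172) and total AMPK, ECL-detected, and bands quantified by densitometry.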
A general note: Immunoblotting shows a protein as a band on a membrane.

Experiment [2] deals with AMPK. The experiment is described as follows: AMPK activation assay (western blot phospho-AMPK Thr172) in 3T3-L1. The settings on record: 3T3-L1 cells, 30 min treatment. It counts as cell-based, mouse. The method, boiled down:
as §1

In experiment [3] the test system is AMPK. Description: AMPK activation assay (western blot phospho-AMPK Thr172) in C2C12. It counts as cell-based, mouse. The conditions noted are these: C2C12 cells, 30 min treatment. The method, boiled down: as §1
In experiment [4] the test system is muscle cell C2C12. Description: Glucose uptake in vitro (fluorescent glucose analog 2-NBDG). The format is cell-based, mouse. The conditions noted are these: 30 min treatment, mean±SEM of three experiments. The protocol:
Effects of representative compounds on glucose uptake were analyzed in muscle cell C2C12 by using fluorescent glucose analog (2-NBDG, Molecular Probes). C2C12 were treated with selected novel AMPK activator for 30 min at 37° C. then exposed to 500 μM of fluorescent glucose analog. After 5 min incubation at room temperature, cells were washed three times with Kreb-Hepes buffered solution and fix in 70% alcohol. The fluorescence of glucose analog in cells was detected using a Fluorescence Microplate Reader System at 480-nm excitation and 530-nm emission wavelength.
Data are presented as the mean±SEM of three independent experiments.

On to `Oc1nc(NC2CCCCC2)nc2nc[nH]c12` [2-cyclohexylamino-6-hydroxypurine], for which the “AMPK activation (% to control) Hep G2” value is given as 111 % to control in experiment [1] (1 microM), 137 % to control in experiment [1] (10 microM), 248 % to control in experiment [1] (100 microM) and 351 % to control in experiment [1] (200 microM). Moreover, the “AMPK activation (% to control) 3T3-L1” value in experiment [2] (1 microM) is recorded as 118 % to control; in experiment [2] (10 microM) it was 172 % to control; in experiment [2] (100 microM), 283 % to control; in experiment [2] (200 microM) it was 375 % to control. Moreover, the “AMPK activation (% to control) C2C12” value in experiment [3] (1 microM) is on record as 108 % to control; in experiment [3] (10 microM), 118 % to control; in experiment [3] (100 microM), 209 % to control; in experiment [3] (200 microM), 321 % to control. For the same compound, the “Glucose uptake (% to control)” value in experiment [4] (C2C12, 1 microM) is listed as 108 ± 2.1 % to control; in experiment [4] (C2C12, 10 microM), 195 ± 11.9 % to control; in experiment [4] (C2C12, 100 microM), 251 ± 16.2 % to control; in experiment [4] (C2C12, 600 microM), 311 ± 10.7 % to control.

In the case of `CCCCCCNc1ncnc2nc[nH]c12` [Example 6-hexylaminopurine, 6-hexylaminopurine], the “AMPK activation (% to control) Hep G2” value in experiment [1] (1 microM) is reported as 112 % to control; in experiment [1] (10 microM), 148 % to control; in experiment [1] (100 microM) it was 280 % to control; in experiment [1] (200 microM), 317 % to control. Further, the “AMPK activation (% to control) 3T3-L1” value in experiment [2] (1 microM) is 108 % to control; in experiment [2] (10 microM), 111 % to control; in experiment [2] (100 microM), 170 % to control; in experiment [2] (200 microM) it was 265 % to control. The “AMPK activation (% to control) C2C12” value is 109 % to control in experiment [3] (1 microM), 123 % to control in experiment [3] (10 microM), 248 % to control in experiment [3] (100 microM) and 359 % to control in experiment [3] (200 microM).

For the compound `Sc1ncnc2nc[nH]c12` [Example 6-mercaptopurine, 6-mercaptopurine], the “AMPK activation (% to control) Hep G2” value is 114 % to control in experiment [1] (1 microM), 122 % to control in experiment [1] (10 microM), 204 % to control in experiment [1] (100 microM) and 279 % to control in experiment [1] (200 microM). The “AMPK activation (% to control) 3T3-L1” value in experiment [2] (1 microM) was 114 % to control; in experiment [2] (10 microM), 128 % to control; in experiment [2] (100 microM) it was 176 % to control; in experiment [2] (200 microM) it was 218 % to control. Also, the “AMPK activation (% to control) C2C12” value is 105 % to control in experiment [3] (1 microM), 119 % to control in experiment [3] (10 microM), 198 % to control in experiment [3] (100 microM) and 289 % to control in experiment [3] (200 microM).

As for `CNc1ncnc2nc[nH]c12` [Example 6-methylaminopurine, 6-methylaminopurine], the “AMPK activation (% to control) Hep G2” value in experiment [1] (1 microM) is 116 % to control; in experiment [1] (10 microM), 141 % to control; in experiment [1] (100 microM) it was 259 % to control; in experiment [1] (200 microM), 363 % to control. Further, the “AMPK activation (% to control) 3T3-L1” value in experiment [2] (1 microM) is 107 % to control; in experiment [2] (10 microM), 129 % to control; in experiment [2] (100 microM) it was 241 % to control; in experiment [2] (200 microM), 347 % to control. In addition, the “AMPK activation (% to control) C2C12” value was 103 % to control in experiment [3] (1 microM), 108 % to control in experiment [3] (10 microM), 213 % to control in experiment [3] (100 microM) and 328 % to control in experiment [3] (200 microM).

Take `Nc1nc2[nH]cnc2c(=S)[nH]1` [Example 6-thioquanine]: the “AMPK activation (% to control) Hep G2” value in experiment [1] (1 microM) is on record as 116 % to control; in experiment [1] (10 microM), 133 % to control; in experiment [1] (100 microM) it was 229 % to control; in experiment [1] (200 microM), 311 % to control. Moreover, the “AMPK activation (% to control) 3T3-L1” value was 115 % to control in experiment [2] (1 microM), 132 % to control in experiment [2] (10 microM), 241 % to control in experiment [2] (100 microM) and 289 % to control in experiment [2] (200 microM). In addition, the “AMPK activation (% to control) C2C12” value in experiment [3] (1 microM) is 116 % to control; in experiment [3] (10 microM), 141 % to control; in experiment [3] (100 microM), 215 % to control; in experiment [3] (200 microM), 301 % to control.

For the compound `O=c1[nH]c(=O)n([C@H]2C[C@H](O)[C@@H](CO)O2)cc1F` [Floxuridine], the “AMPK activation (% to control) Hep G2” value in experiment [1] (1 microM) is recorded as 117 % to control; in experiment [1] (10 microM) it was 147 % to control; in experiment [1] (100 microM), 206 % to control; in experiment [1] (200 microM), 308 % to control. In addition, the “AMPK activation (% to control) 3T3-L1” value is on record as 116 % to control in experiment [2] (1 microM), 141 % to control in experiment [2] (10 microM), 222 % to control in experiment [2] (100 microM) and 343 % to control in experiment [2] (200 microM). Moreover, the “AMPK activation (% to control) C2C12” value is reported as 117 % to control in experiment [3] (1 microM), 144 % to control in experiment [3] (10 microM), 231 % to control in experiment [3] (100 microM) and 312 % to control in experiment [3] (200 microM).

For the compound `Nc1nc2nc[nH]c2c(=O)[nH]1` [Guanine], the “AMPK activation (% to control) Hep G2” value in experiment [1] (1 microM) is listed as 119 % to control; in experiment [1] (10 microM), 144 % to control; in experiment [1] (100 microM) it was 199 % to control; in experiment [1] (200 microM), 335 % to control. Also, the “AMPK activation (% to control) 3T3-L1” value in experiment [2] (1 microM) is on record as 107 % to control; in experiment [2] (10 microM) it was 121 % to control; in experiment [2] (100 microM), 208 % to control; in experiment [2] (200 microM) it was 312 % to control. Further, the “AMPK activation (% to control) C2C12” value is recorded as 105 % to control in experiment [3] (1 microM), 117 % to control in experiment [3] (10 microM), 241 % to control in experiment [3] (100 microM) and 304 % to control in experiment [3] (200 microM).

In the case of `O=c1[nH]cnc2nc[nH]c12` [Hypoxanthine], the “AMPK activation (% to control) Hep G2” value is listed as 105 % to control in experiment [1] (1 microM), 124 % to control in experiment [1] (10 microM), 225 % to control in experiment [1] (100 microM) and 341 % to control in experiment [1] (200 microM). In addition, the “AMPK activation (% to control) 3T3-L1” value is listed as 108 % to control in experiment [2] (1 microM), 128 % to control in experiment [2] (10 microM), 231 % to control in experiment [2] (100 microM) and 335 % to control in experiment [2] (200 microM). The “AMPK activation (% to control) C2C12” value in experiment [3] (1 microM) was 108 % to control; in experiment [3] (10 microM) it was 121 % to control; in experiment [3] (100 microM), 238 % to control; in experiment [3] (200 microM), 309 % to control.

Consider `O=c1cc[nH]c(=O)[nH]1` [Uracil], for which the “AMPK activation (% to control) Hep G2” value in experiment [1] (1 microM) is given as 118 % to control; in experiment [1] (10 microM) it was 144 % to control; in experiment [1] (100 microM), 237 % to control; in experiment [1] (200 microM) it was 359 % to control. In addition, the “AMPK activation (% to control) 3T3-L1” value in experiment [2] (1 microM) is 114 % to control; in experiment [2] (10 microM), 123 % to control; in experiment [2] (100 microM) it was 248 % to control; in experiment [2] (200 microM), 372 % to control. Besides, the “AMPK activation (% to control) C2C12” value is reported as 105 % to control in experiment [3] (1 microM), 109 % to control in experiment [3] (10 microM), 264 % to control in experiment [3] (100 microM) and 358 % to control in experiment [3] (200 microM).
